Laboratory results reported in patent US20160271072A1, “POLYMER NANOPARTICLES CONTAINING MULTIPLE AGENTS AND METHODS THEREOF” (THE UNIVERSITY OF NORTH CAROLINA AT CHAPEL HILL, priority 2013, published 2016).

Key:
A375-luc cells = experiment: Cell viability (MTS) and Chou-Talalay drug combination analysis in A375-luc cells; format: cell-based; conditions: single agent, free or in NP, 2 days drug exposure
Procedure: Cells were seeded in 96-well plates for 24 h at a density of 2×10^3 cells/well. Cell masses that were viable after 2 days of drug exposure were determined by MTS assay. A CellTiter 96 AQueous One Solution Cell Proliferation Assay (Promega, Madison, Wis.) kit containing the tetrazolium compound MTS was used to assay cell viability according to the manufacturer's protocols.
Drug combination analysis was performed by using the method described by Chou and Talalay.
We evaluated the degree of synergy between RAPA and CDDP in terms of cytotoxicity toward A375-luc cells in culture. […] The cytotoxicity of combined CDDP and RAPA was enhanced by NP delivery over free drug combination.

[1] = Serum biochemical value analysis, hematology and organ H&E; format: in vivo, mice; conditions: for blood cell counts (RBC, PLT, WBC, HCT, HGB) vs untreated control: healthy nude mice, three dosages; for ALT / AST / BUN / Creatinine: serum after three injections, n = 5
Procedure: After three injections, blood was collected and centrifuged at 4000 rpm for 5 min to obtain the serum. Blood urea nitrogen (BUN), creatinine, serum aspartate aminotransferase (AST) and alanine aminotransferase (ALT) levels, were assayed as indicators of renal and hepatic function. Whole blood was collected from healthy nude mice after three repeated treatments. Red blood cells (RBC), white blood cells (WBC), platelets (PLT), hemoglobin (HGB) and hematocrits (HCT) were counted for the detection of myelosuppression. Organs (heart, liver, spleen, lung, and kidney) were fixed and sectioned for H&E staining as to evaluate the organ-specific toxicity.

[2] = Drug loading and encapsulation efficiency of cores and PLGA NPs; format: physicochemical; conditions: DOPA coated cores encapsulated separately, DL up to approximately 5 wt %; n=5
Procedure: The loading and encapsulation efficiency of Rapamycin was measured using High-performance Liquid Chromatography (HPLC, Waters, λ=277 nm); the loading and encapsulation efficiency of CDDP was measured using Inductively Coupled Plasma-Mass Spectroscopy (ICP-MS, NexION™ 300, Perkin Elmer Inc); the loading efficiency of GMP was measured both by Ultraviolet-visible spectrometer (UV, DU®800, Beckman Coulter) and ^3H labeled CMP incorporation using a Liquid Scintillation Analyzer (TRI-CARB 2900 TR, Packard Bioscience Co). The size distribution of particle was determined using a Malvern ZetaSizer Nano series (Westborough, Mass.). TEM images of NPs were acquired using a JEOL 100CX II TEM (JEOL, Japan). The NPs were negatively stained with 2% uranyl acetate. Approximately 100 NPs were analyzed for calculating the average number of CDDP cores per PLGA NP.
DL and EE of cisplatin were measured using Inductively Coupled Plasma-Mass Spectroscopy (ICP-MS, NexION™ 300, Perkin Elmer Inc); LE and EE of GMP were both measured by Ultraviolet-Visible Spectroscopy (UV, DU®800, Beckman Coulter) and ^3H labeled cytidine 5′ monophosphate (CMP) [5-^3H] disodium salt (Moravek Bio Inc, 1 mCi/mL) incorporation using a Liquid Scintillation Analyzer (TRI-CARB 2900 TR, Packard Bioscience Co). The size distribution of particles was determined using a Malvern ZetaSizer Nano series (Westborough, Mass.). […]

UMUC3 cells = experiment: MTT cell viability and combination index on UMUC3 cells; format: cell-based, human; conditions: 48 h treatment
Procedure: MTT (3-[4,5-dimethylthiazol-2-yl]-2,5-diphenyltetrazolium bromide) assay was conducted to detect in vitro viability of free GMP, cisplatin and their combinations as well as PLGA GMP NP, PLGA cisplatin NP and PLGA Combo NP. In Brief, cells were seeded in 96-well plates with a density of 3,000 cells per well 24 h prior to drug treatment. On the second day, cells were treated with free drugs or the drug combination at a series of dilutions with various molar ratios. Forty-eight h post treatment, 20 μL of MTT (5 mg/mL) reagent was added for another 4 h at 37° C. The medium was then discarded and the formed formazan salt was dissolved in 150 μL of DMSO. The absorbance in each well was read at the wavelength of 570 nm using a multidetection microplate reader (Plate […]). Each concentration was tested in five wells and data presented as mean±SD. […] Combination Index (CI) Analysis of free drug combination based on the Chou and Talalay method (T. C. Chou, P. Talalay, Adv. Enzyme Regul. 1984, 22, 27) was conducted using CompuSyn software. Briefly, for each level of Fa, the CI values of cisplatin and GMP combinations were calculated according to the following equation: […] CI values of the drug combinations were drawn as a function of Fa. […] (Y. Han, Z. He, […]. Bronich, R. Jordan, […], Mol. Pharm. 2012, 9, 2302).

[3] = system: stroma-rich UMUC3 bladder cancer xenograft; experiment: Anti-tumor efficacy in stroma-rich UMUC3 bladder cancer xenografts (TUNEL, PCNA, Pt-DNA adduct, western blot); format: in vivo, mice; conditions: tumor lysates after three doses

IC50 (A375-luc cells) | IC50 (A375-luc cells; 48 h) | Compound | blood cell counts (RBC, PLT, WBC, HCT, HGB) vs untreated control [1] | ALT [1] | AST [1] | BUN [1] | Creatinine [1] | EE into PLGA NP [2] | IC50 (UMUC3 cells) | expression of ERCC1 and XPA (western blot) [3]
10 µM | – | [NH2][Pt]([NH2])([Cl])[Cl] [CDDP, cisplatin] | significantly reduced | 59 ± 1 U/L | 216 ± 15 U/L | 25 ± 1 mg/dL | 0.2 mg/dL | 74.0±10.1% | – | –
– | 16 µM | CO[C@H]1C[C@@H]2CC[C@@H](C)[C@@](O)(O2)C(=O)C(=O)N2CCCC[C@H]2C(=O)O[C@H]([C@H](C)C[C@@H]2CC[C@@H](O)[C@H](OC)C2)CC(=O)[C@H](C)/C=C(\C)[C@@H](O)[C@@H](OC)C(=O)[C@H](C)C[C@H](C)/C=C/C=C/C=C/1C [RAPA, rapamycin] | – | – | – | – | – | – | – | –
– | – | Gemcitabine monophosphate [GMP] | significantly reduced | 47 ± 3 U/L | 122 ± 20 U/L | 24 ± 2 mg/dL | 0.2 mg/dL | 70.6±2.5% | 34.8 µM | down-regulation
